Eleven molecules from ChEMBL document CHEMBL3400109, “Synthesis and biological evaluation of C-13' substituted 7'-homo-anhydrovinblastine derivatives” (Bioorg Med Chem Lett, 2015) can be followed below.

The subject of test [1] is K562. The experiment in a line: Cytotoxicity against human K562 cells assessed as inhibition of cell proliferation after 72 hrs. The following applies: K562, 72 h. The test is classed as functional, cell-based.
The nature of test [2]: Cytotoxicity against human U87 cells assessed as inhibition of cell proliferation after 72 hrs. The test is classed as functional, cell-based, U-87MG ATCC. The following applies: U-87 MG.
Test [3] can be described thus: Cytotoxicity against human HCT116 cells assessed as inhibition of cell proliferation after 72 hrs. As to conditions: HCT-116, 72 h. It is filed as functional, cell-based.
Test [4] has as its target Tubulin (Homo sapiens) (UniProt P68371+Q9H4B7+P0DPH7+P68366+Q13509+Q71U36+P04350+Q3ZCM7+P07437+P68363+Q9BQE3+Q6PEY2+Q13885+Q9BVA1+Q9BUF5). The experiment in a line: (§1) Inhibition of tubulin (unknown origin) polymerization at 10 mg/ml. It is filed as protein-complex assay.
The target in test [5] is Tubulin. The experiment in a line: Inhibition of tubulin (unknown origin) polymerization. The test is classed as protein-complex assay, Homo sapiens.
The target of test [6] is Tubulin. The description is as §1. It is filed as protein-complex assay, Homo sapiens.

The structures appear in SMILES notation.

For the molecule `CC[C@]1(O)C[C@@H]2CN(CCc3c([nH]c4ccccc34)[C@@](C(=O)OC)(c3cc4c(cc3OC)N(C)[C@H]3[C@@](O)(C(=O)OC)[C@H](OC(C)=O)[C@]5(CC)C=CCN6CC[C@]43[C@@H]65)C2)C1` [VINBLASTINE], the IC50 (usually the concentration that inhibits the measured activity by half) in test [1] was determined as 10 nM; in test [2], 1 nM; in test [3], 2 nM.
On to `C#Cc1ccc2[nH]c3c(c2c1)C/C(C(=O)OC)=C(/C(=O)NC(C)C)N1CC(CC)=CC(C1)C[C@]3(C(=O)OC)c1cc2c(cc1OC)N(C)[C@H]1[C@@](O)(C(=O)OC)[C@H](OC(C)=O)[C@]3(CC)C=CCN4CC[C@]21[C@@H]43` (stereo partly specified), for which the IC50 is 600 nM in test [1], 2000 nM in test [2] and 3000 nM in test [3]. Besides, the inhibition (as a rule, the relative decrease from the control value, in per cent) in test [4] worked out at 16%.
Regarding `C#Cc1ccc2[nH]c3c(c2c1)C/C(C(=O)OC)=C\N1CC(CC)=CC(C1)C[C@]3(C(=O)OC)c1cc2c(cc1OC)N(C)[C@H]1[C@@](O)(C(=O)OC)[C@H](OC(C)=O)[C@]3(CC)C=CCN4CC[C@]21[C@@H]43` (stereo partly specified), the IC50 in test [1] worked out at 600 nM; in test [2], 1600 nM; in test [3], 2500 nM. Further, the inhibition in test [4] was 27%.
On to `CCC1=C[C@@H]2CN(C1)Cc1c([nH]c3ccccc13)[C@@](C(=O)OC)(c1cc3c(cc1OC)N(C)[C@H]1[C@@](O)(C(=O)OC)[C@H](OC(C)=O)[C@]4(CC)C=CCN5CC[C@]31[C@@H]54)C2` [VINORELBINE], for which the half-maximal inhibitory concentration (IC50) worked out at 3.5 nM in test [2], 700 nM in test [5] and 15 nM in test [3].
With `CCC1=CC2CN(C1)/C(C(=O)NC(C)C)=C(/C(=O)OC)Cc1c([nH]c3ccc(C=O)cc13)[C@@](C(=O)OC)(c1cc3c(cc1OC)N(C)[C@H]1[C@@](O)(C(=O)OC)[C@H](OC(C)=O)[C@]4(CC)C=CCN5CC[C@]31[C@@H]54)C2` (stereo partly specified), the IC50 in test [1] came to 16 nM; in test [2] it was 119 nM; in test [3], 47 nM. Further, the inhibition in test [4] amounted to 25%.
For `CCC1=CC2CN(/C=C(/C(=O)OC)Cc3c([nH]c4ccc(C=O)cc34)[C@@](C(=O)OC)(c3cc4c(cc3OC)N(C)[C@H]3[C@@](O)(C(=O)OC)[C@H](OC(C)=O)[C@]5(CC)C=CCN6CC[C@]43[C@@H]65)C2)C1` (stereo partly specified), the IC50 in test [1] is 40 nM; in test [2], 23 nM; in test [3], 270 nM. In test [4], this molecule displayed an inhibition of 11%.
Regarding `CCC1=CC2CN(/C=C(/C(=O)OC)Cc3c([nH]c4ccc(Br)cc34)[C@@](C(=O)OC)(c3cc4c(cc3OC)N(C)[C@H]3[C@@](O)(C(=O)OC)[C@H](OC(C)=O)[C@]5(CC)C=CCN6CC[C@]43[C@@H]65)C2)C1` (stereo partly specified), the IC50 in test [1] stood at 500 nM; in test [2] it was 3000 nM; in test [3] it was 3000 nM. In addition, in test [4], the inhibition was 23%.
Take `CCC1=CC2CN(/C=C(/C(=O)OC)Cc3c([nH]c4ccc(I)cc34)[C@@](C(=O)OC)(c3cc4c(cc3OC)N(C)[C@H]3[C@@](O)(C(=O)OC)[C@H](OC(C)=O)[C@]5(CC)C=CCN6CC[C@]43[C@@H]65)C2)C1` (stereo partly specified): the half-inhibitory concentration (IC50) in test [1] was 1000 nM; in test [6] it was 6200 nM; in test [2] it was 5000 nM; in test [3], 7000 nM.
For the molecule `CCC1=CC2CN(C1)/C(C(=O)NC(C)C)=C(/C(=O)OC)Cc1c([nH]c3ccc(I)cc13)[C@@](C(=O)OC)(c1cc3c(cc1OC)N(C)[C@H]1[C@@](O)(C(=O)OC)[C@H](OC(C)=O)[C@]4(CC)C=CCN5CC[C@]31[C@@H]54)C2` (stereo partly specified), the inhibition in test [4] came to 44%. Further, the half-inhibitory concentration (IC50) was 3000 nM in test [2] and 5000 nM in test [3].
Consider `CCC1=CC2CN(C1)/C(C(=O)NC(C)C)=C(/C(=O)OC)Cc1c([nH]c3ccc(C)cc13)[C@@](C(=O)OC)(c1cc3c(cc1OC)N(C)[C@H]1[C@@](O)(C(=O)OC)[C@H](OC(C)=O)[C@]4(CC)C=CCN5CC[C@]31[C@@H]54)C2` (stereo partly specified), for which the IC50 was determined as 1 nM in test [1], 33 nM in test [2] and 20 nM in test [3]. In addition, in test [4], the inhibition amounted to 0%.
Consider `CCC1=CC2CN(/C=C(/C(=O)OC)Cc3c([nH]c4ccc(C)cc34)[C@@](C(=O)OC)(c3cc4c(cc3OC)N(C)[C@H]3[C@@](O)(C(=O)OC)[C@H](OC(C)=O)[C@]5(CC)C=CCN6CC[C@]43[C@@H]65)C2)C1` (stereo partly specified), for which the IC50 is 20 nM in test [1], 11 nM in test [2] and 50 nM in test [3]. Also, in test [4], the inhibition worked out at 23%.
